Laboratory results from ChEMBL document CHEMBL1921729, “A small nonrule of 3 compatible fragment library provides high hit rate of endothiapepsin crystal structures with various fragment chemotypes” (J Med Chem, 2011).

Key:
[1] = target: T1, Endothiapepsin (Cryphonectria parasitica) (UniProt P11838); assay: Inhibition of Cryphonectria parasitica endothiapepsin using Abz-Thr-Ile-Nle-p-nitro-Phe-Gln-Arg-NH2 as substrate at 1 mM by fluorescence spectrophotometry analysis
T1 sequence (whole entry): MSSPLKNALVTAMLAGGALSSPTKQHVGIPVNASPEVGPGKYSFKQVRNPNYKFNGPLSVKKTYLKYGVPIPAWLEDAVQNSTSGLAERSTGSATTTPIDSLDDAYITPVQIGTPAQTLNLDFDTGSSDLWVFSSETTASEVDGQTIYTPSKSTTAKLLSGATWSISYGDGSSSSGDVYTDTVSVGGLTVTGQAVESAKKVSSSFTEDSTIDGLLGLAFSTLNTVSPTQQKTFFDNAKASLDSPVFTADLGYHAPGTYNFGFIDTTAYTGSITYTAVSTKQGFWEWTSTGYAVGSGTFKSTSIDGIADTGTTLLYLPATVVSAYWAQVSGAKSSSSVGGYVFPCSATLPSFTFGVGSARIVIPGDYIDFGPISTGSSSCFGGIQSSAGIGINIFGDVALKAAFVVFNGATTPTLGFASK

[2] = Solubility of the compound in aqueous buffer at pH 7.4 by UV spectrophotometry; format: physicochemical

Compound | inhibition [1] [%] | solubility [2] [µM]
N=C(N)c1ccc(C(F)(F)F)cc1 | 45 | > 1500
N=C(N)SCc1ccc(Cl)cc1 | 84 | > 1500
CCN(CC)c1ccc(C(=O)NN)cc1 | 89 | > 1500
O=C(Cc1cn2ccccc2n1)Nc1ccccc1 | 84 | > 1500
c1cc(CNc2ccc3c(c2)OCCO3)ccn1 | 50 | > 1500
N=C(N)SCc1ccccc1Cl | 93 | > 1500
O=C(CN1CCCCC1)Nc1ccc2c(c1)OCO2 | 49 | > 1500
CNCc1ccc(Oc2cccnc2)o1 | 66 | > 1500
OC(COCc1ccccc1F)CN1CCCC1 (configuration not stated) | 87 | > 1500
O=C(Cc1ccccc1)Nn1cnc2ccccc21 | 51 | > 1500
NC1=NCc2ccccc21 | 89 | > 1500
